Assay results published in patent US9549932B2, “2-(morpholin-4-yl)-1,7-naphthyridines” (BAYER PHARMA AKTIENGESELLSCHAFT, priority 2014, dated 2017).
pIC50: −log10 of the molar value. Where a name gives a salt, the structure may show the parent alone. Read-outs that look alike come from different tables or passages of the source.

Molecular target: full-length human ATR protein (Homo sapiens (Human), UniProt Q13535)
Assay: Binding assay ATR (TR-FRET tracer displacement)
Procedure, shortened: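 Full-length human GST-ATR co-purified with ATRIP, pre-complexed 30 min at 22 °C with anti-GST-Tb antibody, then pre-bound with compound 10 min. Tracer A or B added (2 µl of 100 nM solution), 30 min at 22 °C.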

[1] = tracer A, TR-FRET, read-out: ATR binding (tracer A) IC50
[2] = tracer B, TR-FRET, read-out: ATR binding (tracer B) IC50

Sequence of full-length human ATR protein (Q13535 other isoform, or with tags, fused parts or gaps): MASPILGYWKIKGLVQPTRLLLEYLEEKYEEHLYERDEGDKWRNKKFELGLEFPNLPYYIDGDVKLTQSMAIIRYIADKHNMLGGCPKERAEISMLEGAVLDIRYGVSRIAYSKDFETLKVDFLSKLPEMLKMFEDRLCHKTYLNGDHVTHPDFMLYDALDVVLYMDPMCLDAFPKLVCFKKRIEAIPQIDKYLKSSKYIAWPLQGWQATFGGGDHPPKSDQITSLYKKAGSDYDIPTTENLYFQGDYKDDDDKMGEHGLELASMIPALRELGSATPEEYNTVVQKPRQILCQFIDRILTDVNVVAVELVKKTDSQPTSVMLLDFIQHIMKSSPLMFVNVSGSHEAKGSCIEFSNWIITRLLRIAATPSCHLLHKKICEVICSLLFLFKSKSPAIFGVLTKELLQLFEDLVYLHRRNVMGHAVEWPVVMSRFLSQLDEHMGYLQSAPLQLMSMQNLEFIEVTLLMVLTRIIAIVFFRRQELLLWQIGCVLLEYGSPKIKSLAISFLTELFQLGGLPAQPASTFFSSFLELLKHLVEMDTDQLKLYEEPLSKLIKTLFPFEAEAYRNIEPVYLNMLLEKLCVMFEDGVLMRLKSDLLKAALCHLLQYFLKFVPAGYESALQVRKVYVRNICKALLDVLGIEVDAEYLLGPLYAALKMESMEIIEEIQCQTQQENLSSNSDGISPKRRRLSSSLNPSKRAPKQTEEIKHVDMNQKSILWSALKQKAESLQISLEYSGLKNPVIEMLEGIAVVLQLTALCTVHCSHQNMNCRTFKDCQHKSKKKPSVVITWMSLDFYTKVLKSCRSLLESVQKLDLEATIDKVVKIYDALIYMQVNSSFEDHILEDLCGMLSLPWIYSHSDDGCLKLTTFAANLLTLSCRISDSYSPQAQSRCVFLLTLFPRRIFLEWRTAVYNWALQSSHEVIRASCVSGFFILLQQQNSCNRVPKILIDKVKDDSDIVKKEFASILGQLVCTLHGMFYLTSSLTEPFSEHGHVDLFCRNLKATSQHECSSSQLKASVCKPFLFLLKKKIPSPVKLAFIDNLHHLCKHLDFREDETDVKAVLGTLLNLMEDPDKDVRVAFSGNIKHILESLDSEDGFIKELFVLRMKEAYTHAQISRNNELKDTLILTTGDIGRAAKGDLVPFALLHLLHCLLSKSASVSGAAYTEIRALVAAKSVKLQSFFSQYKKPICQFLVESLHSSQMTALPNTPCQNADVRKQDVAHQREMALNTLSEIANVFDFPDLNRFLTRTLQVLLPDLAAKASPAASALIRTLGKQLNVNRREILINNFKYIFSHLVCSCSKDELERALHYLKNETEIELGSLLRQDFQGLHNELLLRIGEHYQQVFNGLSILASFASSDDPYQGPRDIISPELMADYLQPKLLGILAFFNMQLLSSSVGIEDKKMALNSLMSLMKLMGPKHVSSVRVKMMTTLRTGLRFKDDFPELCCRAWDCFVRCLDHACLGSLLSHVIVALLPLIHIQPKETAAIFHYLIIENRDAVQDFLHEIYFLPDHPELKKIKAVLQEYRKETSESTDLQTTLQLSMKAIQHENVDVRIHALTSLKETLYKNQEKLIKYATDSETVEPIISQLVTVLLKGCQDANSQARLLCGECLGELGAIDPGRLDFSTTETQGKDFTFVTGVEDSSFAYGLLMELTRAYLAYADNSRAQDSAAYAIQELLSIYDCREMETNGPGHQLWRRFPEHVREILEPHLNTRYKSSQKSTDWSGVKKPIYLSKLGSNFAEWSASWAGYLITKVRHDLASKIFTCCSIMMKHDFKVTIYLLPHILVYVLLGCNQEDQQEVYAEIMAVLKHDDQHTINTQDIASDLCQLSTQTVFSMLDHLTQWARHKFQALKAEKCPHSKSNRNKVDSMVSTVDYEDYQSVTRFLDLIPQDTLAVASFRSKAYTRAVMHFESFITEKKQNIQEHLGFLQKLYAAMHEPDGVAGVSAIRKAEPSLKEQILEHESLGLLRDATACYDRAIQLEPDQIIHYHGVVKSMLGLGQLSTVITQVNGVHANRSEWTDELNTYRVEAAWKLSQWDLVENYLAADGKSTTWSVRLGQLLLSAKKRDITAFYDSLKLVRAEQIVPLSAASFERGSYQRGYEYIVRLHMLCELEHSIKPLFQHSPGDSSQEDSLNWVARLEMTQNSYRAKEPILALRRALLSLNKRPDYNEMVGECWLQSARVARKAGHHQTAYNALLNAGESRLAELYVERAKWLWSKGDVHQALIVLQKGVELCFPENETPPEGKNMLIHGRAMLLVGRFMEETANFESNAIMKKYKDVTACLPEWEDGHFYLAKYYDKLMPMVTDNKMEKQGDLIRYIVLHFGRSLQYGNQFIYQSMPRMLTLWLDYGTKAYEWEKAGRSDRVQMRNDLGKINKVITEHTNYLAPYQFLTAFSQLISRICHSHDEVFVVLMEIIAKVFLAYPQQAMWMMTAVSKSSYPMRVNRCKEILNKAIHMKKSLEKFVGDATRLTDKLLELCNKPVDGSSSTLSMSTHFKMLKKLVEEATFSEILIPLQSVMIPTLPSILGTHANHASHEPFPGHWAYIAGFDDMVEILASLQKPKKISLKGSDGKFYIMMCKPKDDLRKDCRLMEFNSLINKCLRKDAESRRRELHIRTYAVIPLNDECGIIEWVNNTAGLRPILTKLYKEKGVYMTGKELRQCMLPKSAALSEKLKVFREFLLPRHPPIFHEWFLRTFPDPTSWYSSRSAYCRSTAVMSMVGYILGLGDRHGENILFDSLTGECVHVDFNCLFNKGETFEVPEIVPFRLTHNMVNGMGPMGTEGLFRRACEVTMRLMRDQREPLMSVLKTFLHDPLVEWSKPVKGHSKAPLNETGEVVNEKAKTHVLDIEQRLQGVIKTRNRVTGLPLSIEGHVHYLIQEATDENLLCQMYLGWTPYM
Sequence of full-length human ATR protein (Q8WXE1 other isoform, or with tags, fused parts or gaps partner): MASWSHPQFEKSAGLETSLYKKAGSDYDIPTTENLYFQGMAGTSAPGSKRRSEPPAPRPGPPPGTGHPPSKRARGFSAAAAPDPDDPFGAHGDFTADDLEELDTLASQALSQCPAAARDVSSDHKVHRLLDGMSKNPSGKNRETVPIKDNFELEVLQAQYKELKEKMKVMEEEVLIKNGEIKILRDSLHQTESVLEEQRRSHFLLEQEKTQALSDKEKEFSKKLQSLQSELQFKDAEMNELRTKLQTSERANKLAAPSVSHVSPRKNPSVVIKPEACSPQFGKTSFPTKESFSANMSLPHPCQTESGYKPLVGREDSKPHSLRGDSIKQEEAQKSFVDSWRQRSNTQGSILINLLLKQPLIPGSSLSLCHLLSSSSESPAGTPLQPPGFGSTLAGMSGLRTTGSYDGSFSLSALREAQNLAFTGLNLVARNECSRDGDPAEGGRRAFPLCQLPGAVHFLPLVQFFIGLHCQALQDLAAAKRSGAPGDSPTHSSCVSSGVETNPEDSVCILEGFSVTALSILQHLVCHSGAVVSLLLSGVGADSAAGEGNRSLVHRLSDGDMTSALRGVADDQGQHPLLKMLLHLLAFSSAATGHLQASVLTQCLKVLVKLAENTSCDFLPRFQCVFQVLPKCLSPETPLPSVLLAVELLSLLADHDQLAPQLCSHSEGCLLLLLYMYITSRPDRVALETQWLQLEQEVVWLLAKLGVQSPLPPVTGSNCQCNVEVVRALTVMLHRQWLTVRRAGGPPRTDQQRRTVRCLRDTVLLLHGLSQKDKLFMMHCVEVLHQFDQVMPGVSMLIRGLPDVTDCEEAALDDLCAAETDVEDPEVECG

| SMILES | pIC50 [1] | pIC50 [2] | pIC50 (read-out: ATR binding (tracer A) IC50) |
| --- | --- | --- | --- |
| c1cc2ccc(N3CCOCC3)nc2c(-c2cc[nH]n2)n1 [Example 61, 2-(morpholin-4-yl)-8-(1H-pyrazol-3-yl)-[1,7]naphthyridine hydrochloride] | 6.15 | 6.30 | – |
| c1ccc(-c2ccc(-c3cc(N4CCOCC4)nc4c(-c5ccn[nH]5)nccc34)cc2)cc1 [Example 331, 4-(biphenyl-4-yl)-2-(morpholin-4-yl)-8-(1H-pyrazol-5-yl)-1,7-naphthyridine] | 6.42 | – | – |
| CCn1nc(C(F)(F)F)cc1-c1cc(N2CCOC[C@H]2C)nc2c(-c3ccn[nH]3)nccc12 [Example 119, 4-[1-ethyl-3-(trifluoromethyl)-1H-pyrazol-5-yl]-2-[(3R)-3-methylmorpholin-4-yl]-8-(1H-pyrazol-5-yl)-1,7-naphthyridine] | 7.93 | – | – |
| CCOP(=O)(CC(C)C)c1cc(N2CCOC[C@H]2C)nc2c(-c3ccn[nH]3)nccc12 (stereo partly drawn) [Example 144, Ethyl isobutyl{2-[(3R)-3-methylmorpholin-4-yl]-8-(1H-pyrazol-5-yl)-1,7-naphthyridin-4-yl}phosphinate] | 7.12 | – | – |
| COC1(C)CN(c2cc(N3CCOCC3)nc3c(-c4ccn[nH]4)nccc23)C1 [Example 184, 4-(3-methoxy-3-methylazetidin-1-yl)-2-(morpholin-4-yl)-8-(1H-pyrazol-5-yl)-1,7-naphthyridine] | 6.12 | – | – |
| Cc1cc(-c2cc(N3CCOC[C@H]3C)nc3c(-c4ccn[nH]4)nccc23)cnc1C [Example 232, 4-(5,6-dimethylpyridin-3-yl)-2-[(3R)-3-methylmorpholin-4-yl]-8-(1H-pyrazol-5-yl)-1,7-naphthyridine] | 7.41 | – | – |
| NC(=O)c1cccc(-c2cc(N3CCOCC3)nc3c(-c4ccn[nH]4)nccc23)c1 [Example 295, 3-[2-(morpholin-4-yl)-8-(1H-pyrazol-5-yl)-1,7-naphthyridin-4-yl]benzamide] | 6.95 | – | – |
| Cc1cc(-c2cc(N3CCOC[C@H]3C)nc3c(-c4ccn[nH]4)nccc23)cs1 [Example 234, 2-[(3R)-3-methylmorpholin-4-yl]-4-(5-methylthiophen-3-yl)-8-(1H-pyrazol-5-yl)-1,7-naphthyridine] | 7.53 | – | – |
| C1=CCN(c2cc(N3CCOCC3)nc3c(-c4ccn[nH]4)nccc23)C1 [Example 417, 4-(2,5-dihydro-1H-pyrrol-1-yl)-2-(morpholin-4-yl)-8-(1H-pyrazol-5-yl)-1,7-naphthyridine] | 5.97 | – | – |
| C[C@@H]1COCCN1c1cc(-c2ccsc2Cl)c2ccnc(-c3ccn[nH]3)c2n1 [Example 236, 4-(2-chlorothiophen-3-yl)-2-[(3R)-3-methylmorpholin-4-yl]-8-(1H-pyrazol-5-yl)-1,7-naphthyridine] | 7.55 | – | – |
| [O-][S+](c1ccccc1)c1cc(N2CCOCC2)nc2c(-c3ccn[nH]3)nccc12 (stereo not shown) [Example 201, 2-(morpholin-4-yl)-4-(phenylsulfinyl)-8-(1H-pyrazol-5-yl)-1,7-naphthyridine] | 7.40 | – | – |
| C[C@@H]1COCCN1c1cc(-c2ccc(S(C)(=N)=O)cc2)c2ccnc(-c3ccn[nH]3)c2n1 (stereo partly drawn) [Example 30, 4-[2-((R)-3-methylmorpholin-4-yl)-8-(2H-pyrazol-3-yl)-[1,7]naphthyridine-4-yl]phenyl-S-methylsulphoximide] | 7.64 | 8.02 | – |
| COP(=O)(O)c1ccc(-c2cc(N3CCOCC3)nc3c(-c4ccn[nH]4)nccc23)cc1 [Example 181, Methyl hydrogen {4-[2-(morpholin-4-yl)-8-(1H-pyrazol-5-yl)-1,7-naphthyridin-4-yl]phenyl}phosphonate] | – | – | 6.27 |
| Cc1cn[nH]c1-c1cc(N2CCOC[C@H]2C)nc2c(-c3ccn[nH]3)nccc12 [Example 149, 2-[(3R)-3-methylmorpholin-4-yl]-4-(4-methyl-1H-pyrazol-5-yl)-8-(1H-pyrazol-5-yl)-1,7-naphthyridine] | 7.32 | – | – |
| C[C@@H]1COCCN1c1cc(C2(O)CCCCC2)c2ccnc(-c3ccn[nH]3)c2n1 [Example 189, 1-{2-[(3R)-3-methylmorpholin-4-yl]-8-(1H-pyrazol-5-yl)-1,7-naphthyridin-4-yl}cyclohexanol] | 7.67 | – | – |
| O=C1OCCCN1c1cc(N2CCOCC2)nc2c(-c3ccn[nH]3)nccc12 [Example 225, 3-[2-(morpholin-4-yl)-8-(1H-pyrazol-5-yl)-1,7-naphthyridin-4-yl]-1,3-oxazinan-2-one] | 6.35 | – | – |
| Clc1ccccc1-c1cc(N2CCOCC2)nc2c(-c3ccn[nH]3)nccc12 [Example 333, 4-(2-chlorophenyl)-2-(morpholin-4-yl)-8-(1H-pyrazol-5-yl)-1,7-naphthyridine] | 7.60 | – | – |
| CN(c1ccccc1)c1cc(N2CCOCC2)nc2c(-c3ccn[nH]3)nccc12 [Example 410, N-methyl-2-(morpholin-4-yl)-N-phenyl-8-(1H-pyrazol-5-yl)-1,7-naphthyridin-4-amine] | 6.82 | – | – |
| Cc1ccccc1-c1cc(N2CCOCC2)nc2c(-c3ccn[nH]3)nccc12 [Example 318, 4-(2-methylphenyl)-2-(morpholin-4-yl)-8-(1H-pyrazol-5-yl)-1,7-naphthyridine] | 7.51 | – | – |

| SMILES | pIC50 [1] | pIC50 [2] | pIC50 (read-out: ATR binding (tracer A) IC50) |
| --- | --- | --- | --- |
| C[C@@H]1COCCN1c1cc(N2CCOCC2)c2ccnc(-c3ccn[nH]3)c2n1 [Example 145, 2-[(3R)-3-methylmorpholin-4-yl]-4-(morpholin-4-yl)-8-(1H-pyrazol-5-yl)-1,7-naphthyridine] | 7.74 | – | – |
| CS(=O)(=O)c1ccc(-c2cc(N3CCOCC3)nc3c(-c4ccn[nH]4)nccc23)c(F)c1 [Example 24, 4-[2-fluoro-4-(methylsulfonyl)phenyl]-2-(morpholin-4-yl)-8-(1H-pyrazol-5-yl)-1,7-naphthyridine] | 7.42 | 7.68 | – |
| C[C@@H]1COCCN1c1cc(C2CC[S+]([O-])CC2)c2ccnc(-c3ccn[nH]3)c2n1 (stereo partly drawn) [Example 203, 2-[(3R)-3-methylmorpholin-4-yl]-4-[1-oxidotetrahydro-2H-thiopyran-4-yl]-8-(1H-pyrazol-5-yl)-1,7-naphthyridine] | 7.95 | – | – |
| c1ccc2ncc(-c3cc(N4CCOCC4)nc4c(-c5ccn[nH]5)nccc34)cc2c1 [Example 354, 2-(morpholin-4-yl)-8-(1H-pyrazol-5-yl)-4-(quinolin-3-yl)-1,7-naphthyridine] | 7.07 | – | – |
| C[C@@H]1COCCN1c1cc(N=S(C)(=O)C(C)(C)C)c2ccnc(-c3ccn[nH]3)c2n1 (stereo partly drawn) [Example 278, 4-{[tert-butyl(methyl)oxido-λ^6-sulfanylidene]amino}-2-[(3R)-3-methylmorpholin-4-yl]-8-(1H-pyrazol-5-yl)-1,7-naphthyridine] | 7.57 | – | – |
| COc1ncccc1-c1cc(N2CCOCC2)nc2c(-c3ccn[nH]3)nccc12 [Example 362, 4-(2-methoxypyridin-3-yl)-2-(morpholin-4-yl)-8-(1H-pyrazol-5-yl)-1,7-naphthyridine] | 6.53 | – | – |
| CC(=O)Nc1ccccc1-c1cc(N2CCOC[C@H]2C)nc2c(-c3ccn[nH]3)nccc12 [Example 166, N-(2-{2-[(3R)-3-methylmorpholin-4-yl]-8-(1H-pyrazol-5-yl)-1,7-naphthyridin-4-yl}phenyl)acetamide] | 6.44 | – | – |
| COc1ccc(-c2cc(N3CCOCC3)nc3c(-c4ccn[nH]4)nccc23)cc1 [Example 309, 4-(4-methoxyphenyl)-2-(morpholin-4-yl)-8-(1H-pyrazol-5-yl)-1,7-naphthyridine] | 6.84 | – | – |
| O=C(c1ccc(-c2cc(N3CCOCC3)nc3c(-c4ccn[nH]4)nccc23)cc1)N1CCCCC1 [Example 289, {4-[2-(morpholin-4-yl)-8-(1H-pyrazol-5-yl)-1,7-naphthyridin-4-yl]phenyl}(piperidin-1-yl)methanone] | 5.52 | – | – |
| COc1ccc(Sc2cc(N3CCOCC3)nc3c(-c4ccn[nH]4)nccc23)cc1 [Example 213] | 7.27 | – | – |
| CN(C)C(=O)c1ccccc1-c1cc(N2CCOCC2)nc2c(-c3ccn[nH]3)nccc12 [Example 290, N,N-dimethyl-2-[2-(morpholin-4-yl)-8-(1H-pyrazol-5-yl)-1,7-naphthyridin-4-yl]benzamide] | 5.92 | – | – |
| C1=C(c2cc(N3CCOCC3)nc3c(-c4ccn[nH]4)nccc23)CCNC1 [Example 17, 2-(morpholin-4-yl)-8-(1H-pyrazol-5-yl)-4-(1,2,3,6-tetrahydropyridin-4-yl)-1,7-naphthyridine] | 6.73 | 6.93 | – |
| c1cc(-c2nccc3c(N4C5CCC4COC5)cc(N4CCOCC4)nc23)[nH]n1 [Example 174, 2-(morpholin-4-yl)-4-(3-oxa-8-azabicyclo[3.2.1]oct-8-yl)-8-(1H-pyrazol-5-yl)-1,7-naphthyridine] | 6.67 | – | – |
| C[C@@H]1COCCN1c1cc(-c2ccnn2C2COC2)c2ccnc(-c3ccn[nH]3)c2n1 [Example 133, 2-[(3R)-3-methylmorpholin-4-yl]-4-[1-(oxetan-3-yl)-1H-pyrazol-5-yl]-8-(1H-pyrazol-5-yl)-1,7-naphthyridine] | 7.57 | – | – |
| Cc1cc(-c2cc(N3CCOCC3)nc3c(-c4ccn[nH]4)nccc23)cc(C)c1O [Example 311, 2,6-dimethyl-4-[2-(morpholin-4-yl)-8-(1H-pyrazol-5-yl)-1,7-naphthyridin-4-yl]phenol] | 6.42 | – | – |
| CS(=O)(=O)Cc1cc(N2CCOCC2)nc2c(-c3ccn[nH]3)nccc12 [Example 37, 4-methanesulphonylmethyl-2-morpholin-4-yl-8-(2H-pyrazol-3-yl)-[1,7]naphthyridine] | 6.77 | 6.90 | – |
| Cc1ccncc1-c1cc(N2CCOCC2)nc2c(-c3ccn[nH]3)nccc12 [Example 292, 4-(4-methylpyridin-3-yl)-2-(morpholin-4-yl)-8-(1H-pyrazol-5-yl)-1,7-naphthyridine] | 6.97 | – | – |
| Fc1cnccc1-c1cc(N2CCOCC2)nc2c(-c3ccn[nH]3)nccc12 [Example 365, 4-(3-fluoropyridin-4-yl)-2-(morpholin-4-yl)-8-(1H-pyrazol-5-yl)-1,7-naphthyridine] | 6.99 | – | – |
| CC(C)Cn1nccc1-c1cc(N2CCOC[C@H]2C)nc2c(-c3ccn[nH]3)nccc12 [Example 146, 4-(1-isobutyl-1H-pyrazol-5-yl)-2-[(3R)-3-methylmorpholin-4-yl]-8-(1H-pyrazol-5-yl)-1,7-naphthyridine] | 7.45 | – | – |
